In patent publication US8796292B2, “Selective antibacterials for clostridium difficile infections” (GLSynthesis Inc., priority 2009, dated 2014):
Converted amounts (≈) assume the structure as drawn. Where two headings read alike, the source gives them in different places.

Experiments:
L. casei = assay: agar dilution MIC assay of anaerobic bacteria; format: cell-based, Lactobacillus casei; details: Lacticaseibacillus casei, Strain no. 1722 (ATCC strain), Table 3
Outline: (§1)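 Frozen isolates were subcultured anaerobically on Supplemented Brucella Agar, then inoculated onto manually prepared drug-supplemented agar plates. These were incubated 48 hours at 35° C. under 5% hydrogen, 5% carbon dioxide and 90% nitrogen, and MIC was recorded in μg/ml.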

Bi. brevi = assay: agar dilution MIC assay of anaerobic bacteria; format: cell-based, Bifidobacterium brevi; details: Bifidobacterium breve; Bi. Breve, Strain no. 3967 (ATCC strain), Table 3
Outline: as §1

C. difficile = assay: agar dilution MIC assay of anaerobic bacteria; format: cell-based, Clostridium difficile; details: for MIC: Clostridioides difficile, read-out: MIC
Outline: as §1

C. diff. (ATCC43255) = assay: clindamycin-induced C. diff. infection model in Syrian golden hamsters; format: in vivo; details: for % Survivors at 120 hr / Survivors at 24 hr / Survivors at 48 hr / Survivors at 66 hr / Survivors at 72 hr / Survivors at 96 hr: n = 6 hamsters
Excerpt: Compound 359E was given orally as a suspension in 1% carboxymethylcellulose to Syrian Golden hamsters, pretreated subcutaneously with clindamycin and infected orally with C. diff. (ATCC43255) as described in Table 5.

E. lentum = assay: agar dilution MIC assay of anaerobic bacteria; format: cell-based, Eubacterium lentum; details: Eggerthella lenta; Eu. Lentum, Strain no. 1274 (ATCC strain), Table 3; read-out: MIC
Outline: as §1

Bi. longum = assay: agar dilution MIC assay of anaerobic bacteria; format: cell-based, Bifidobacterium longum; details: Bifidobacterium longum; Bi. Longum, Strain no. 3968 (ATCC strain), Table 3; read-out: MIC
Outline: as §1

L. acidophilus = assay: agar dilution MIC assay of anaerobic bacteria; format: cell-based; details: Lactobacillus acidophilus, Strain no. 0681, Table 3
Outline: as §1

Ba. fragilis = assay: agar dilution MIC assay of anaerobic bacteria; format: cell-based; details: Bacteroides fragilis, B. fragilis
Outline: as §1

Q: What does the source list for `O=c1[nH]c(NCc2ccc(Cl)c(Cl)c2)nc2ncn(CCCCCN3CCOCC3)c12` [Compound 359E, 7-[5-(N-morpholinyl)pentyl]-2-(3,4-dichlorobenzylamino)-6-oxopurine]?
A: MIC (L. casei): 16 µg/mL (≈ 34.4 µM); MIC (Bi. brevi): > 32 µg/mL; MIC (C. difficile; C. diff. Strain no. 18285, Table 4): 8 µg/mL (≈ 17.2 µM); MIC (C. difficile; C. diff. Strain no. 19265, Table 4): 8 µg/mL (≈ 17.2 µM); MIC (C. difficile; C. diff. Strain no. 19273, Table 4): 8 µg/mL (≈ 17.2 µM); MIC (C. difficile; C. diff. Strain no. 19281, Table 4): 8 µg/mL (≈ 17.2 µM); MIC (C. difficile; C. diff. Strain no. 19291, Table 4): 4 µg/mL (≈ 8.6 µM); MIC (C. difficile; C. diff. Strain no. 19369, Table 4): 8 µg/mL (≈ 17.2 µM); MIC (C. difficile; C. diff. Strain no. 19382, Table 4): 2 µg/mL (≈ 4.3 µM); MIC (C. difficile; C. diff. Strain no. 19540, Table 4): 4 µg/mL (≈ 8.6 µM); MIC (C. difficile; C. diff. Strain no. 19580, Table 4): 2 µg/mL (≈ 4.3 µM); MIC (C. difficile; C. diff. Strain no. 19680, Table 4): 8 µg/mL (≈ 17.2 µM); MIC (C. difficile; C. diff. Strain no. 19681, Table 4): 8 µg/mL (≈ 17.2 µM); MIC (C. difficile; C. diff. Strain no. 19683, Table 4): 8 µg/mL (≈ 17.2 µM); MIC (C. difficile; C. diff. Strain no. 19687, Table 4): 8 µg/mL (≈ 17.2 µM); MIC (C. difficile; C. diff. Strain no. 20066, Table 4): 8 µg/mL (≈ 17.2 µM); MIC (C. difficile; C. diff. Strain no. 20152, Table 4): 8 µg/mL (≈ 17.2 µM); MIC (C. difficile; C. diff. Strain no. 20307, Table 4): 8 µg/mL (≈ 17.2 µM); MIC (C. difficile; C. diff. Strain no. 20494, Table 4): 8 µg/mL (≈ 17.2 µM); MIC (C. difficile; C. diff. Strain no. 20680, Table 4): 8 µg/mL (≈ 17.2 µM); MIC (C. difficile; C. diff. Strain no. 20934, Table 4): 2 µg/mL (≈ 4.3 µM); MIC (C. difficile; C. diff. Strain no. 21099, Table 4): 8 µg/mL (≈ 17.2 µM); MIC (C. difficile; C. diff., Micromyx Number 3579, Table 2): 2 µg/mL (≈ 4.3 µM); MIC (C. difficile; C. diff., Micromyx Number 3580, Table 2): 2 µg/mL (≈ 4.3 µM); MIC (C. difficile; C. diff., Micromyx Number 3581, Table 2): 2 µg/mL (≈ 4.3 µM); MIC (C. difficile; C. diff., Micromyx Number 3582 (ATCC strain), Table 2): 2 µg/mL (≈ 4.3 µM); MIC (C. difficile; C. diff., Strain no. 3580, Table 3): 4 µg/mL (≈ 8.6 µM); MIC (C. difficile; C. diff., Strain no. 3581, Table 3): 2 µg/mL (≈ 4.3 µM); MIC (C. difficile; C. diff., Strain no. 3582, Table 3): 8 µg/mL (≈ 17.2 µM); MIC (C. difficile; C. diff., Strain no. 3584, Table 3): 2 µg/mL (≈ 4.3 µM); MIC (C. difficile; C. diff., Strain no. 3585, Table 3): 4 µg/mL (≈ 8.6 µM); MIC (C. difficile; C. diff., Strain no. 3586, Table 3): 2 µg/mL (≈ 4.3 µM); MIC (C. difficile; C. diff., Strain no. 3587, Table 3): 4 µg/mL (≈ 8.6 µM); MIC (C. difficile; C. diff., Strain no. 3588, Table 3): 0.5 µg/mL (≈ 1.07 µM); MIC (C. difficile; C. diff., Strain no. 3589, Table 3): 4 µg/mL (≈ 8.6 µM); MIC (C. difficile; C. diff., Strain no. 4381 (ATCC strain), Table 3): 2 µg/mL (≈ 4.3 µM); potency and selectivity against C. diff. versus other Gram-positive anaerobes (in words) (C. difficile; summary of MIC panels, Tables 1 and 3): best profile; % Survivors at 120 hr (C. diff. (ATCC43255); 25 mg/kg PO bid for 3 days): 100%; Survivors at 24 hr (C. diff. (ATCC43255); 25 mg/kg PO bid for 3 days): 6; Survivors at 48 hr (C. diff. (ATCC43255); 25 mg/kg PO bid for 3 days): 6; Survivors at 66 hr (C. diff. (ATCC43255); 25 mg/kg PO bid for 3 days): 6; Survivors at 72 hr (C. diff. (ATCC43255); 25 mg/kg PO bid for 3 days): 6; Survivors at 96 hr (C. diff. (ATCC43255); 25 mg/kg PO bid for 3 days): 6; % Survivors at 120 hr (C. diff. (ATCC43255); 50 mg/kg PO bid for 3 days): 100%; Survivors at 24 hr (C. diff. (ATCC43255); 50 mg/kg PO bid for 3 days): 6; Survivors at 48 hr (C. diff. (ATCC43255); 50 mg/kg PO bid for 3 days): 6; Survivors at 66 hr (C. diff. (ATCC43255); 50 mg/kg PO bid for 3 days): 6; Survivors at 72 hr (C. diff. (ATCC43255); 50 mg/kg PO bid for 3 days): 6; Survivors at 96 hr (C. diff. (ATCC43255); 50 mg/kg PO bid for 3 days): 6; protection from lethal infection with C. diff. (in words) (C. diff. (ATCC43255); oral suspension in 1% carboxymethylcellulose, twice daily): protected hamsters from lethal infection; MIC (E. lentum): > 32 µg/mL; MIC (Bi. longum): > 32 µg/mL; MIC (L. acidophilus): 2 µg/mL (≈ 4.3 µM); MIC (Ba. fragilis; Micromyx Number 0123 (ATCC strain), Table 2): > 32 µg/mL; MIC (Ba. fragilis; Strain no. 0123 (ATCC strain), Gram-negative (control), Table 3): > 32 µg/mL
